Test [1] has as its target T1, BAK (Homo sapiens, UniProt Q16611).
T1 sequence (Q16611 15-186): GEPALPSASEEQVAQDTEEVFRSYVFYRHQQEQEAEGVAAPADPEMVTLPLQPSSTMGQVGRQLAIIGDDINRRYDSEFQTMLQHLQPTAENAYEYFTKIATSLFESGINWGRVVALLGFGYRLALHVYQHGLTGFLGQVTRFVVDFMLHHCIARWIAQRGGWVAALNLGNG
The experiment in a line: ligand-based 1D-NMR, […] 2D-NMR titration, competitive TR-FRET, nanoDSF. It counts as binding. For orientation: TR-FRET usually uses a lanthanide donor and a delayed reading to cut background.

In test [2] the target is T1, BAK. Description: ligand-based 1D-NMR. It counts as binding.

A word on the IC50: it is the concentration that inhibits the measured activity by half. The compound `Cc1ccc(C)c2sc(N)nc12` [A3] showed a half-maximal inhibitory concentration (IC50) in test [1] of 1970 µM.
With `Cc1ccc(Cl)c2sc(N)nc12` [H6, SJ572946], the IC50 in test [2] stood at 570 µM.

The record behind these values is paper PMC9485059 (iScience, 2022).
